What was measured:
[1] = tested on: primary pancreatic cancers; test: BRDU uptake in primary cultures of surgically resected pancreatic cancers; assay type: cell-based, human; details: all 5 primary pancreatic cancers; 5.5 mM fructose compared to 5.5 mM glucose, 72 h
Experimental: FIG. 18 depicts BRDU incorporation by pancreatic cells in accordance with an embodiment of the present invention. Freshly resected pancreatic cancers were mechanically and enzymatically dispersed, and cells were pre-incubated in 2 mM glucose prior to treatment with 5.5 mM glucose or fructose for 72 h. BRDU (10 μM) was added to the medium at 48 h, and BRDU-uptake quantified at 72 h.
As immortalized cell-lines, such as PANC-1 pancreatic cancer cells, can become dedifferentiated after repeated passages, and in order to translate these findings in the PANC-1 cells to patients with pancreatic cancer, the inventors also examined proliferative rates in primary cultures of fresh surgically resected pancreatic cancers, following incubation in 2 mM, and 5.5 mM glucose or 5.5 mM fructose. Briefly, after mechanical and enzymatic (trypsin and DNAse) disaggregation, aliquots of tumor cells were seeded in 6-well plates, and incubated in standard DMEM media with 10% fetal bovine serum, and 2 mM glucose, 5.5 mM glucose, or 5.5 mM fructose for 72 h. As before in the PANC-1 experiments, BRDU (10 μM) was added in the […] of incubation in the sugars, following which BRDU-uptake was quantified.

[2] = tested on: AP-1; test: AP-1 probe binding assay on nuclear extracts of a primary culture of a pancreatic tumor; assay type: cell-based, human; details: 5.5 mM sugar, 48 h
Experimental: FIG. 24 depicts luciferase activity of PANC-1 cells and primary culture of surgically resected pancreatic tumor cells in accordance with an embodiment of the present invention. PANC-1 pancreatic cancer cells and a primary culture of a surgically resected pancreatic tumor were incubated in 2 mM glucose, 5.5 mM glucose or 5.5 mM fructose for 48 h, after which nuclear extracts were incubated with a biotinylated AP-1 probe, and detected by an antibody-linked colorimetric method. *, p<0.01
In separate experiments PANC-1 cells, and primary cultures of surgically resected pancreatic tumors were incubated in 2 mM glucose, or 5.5 mM glucose or 5.5 mM fructose for 48 h, after which nuclear extracts were incubated with a biotinylated AP-1 probe in binding buffer. AP-1/AP1 probe complexes were next conjugated to a streptavidin-coated assay plate and detected using an AP-1 specific antibody, followed by binding of a horseradish-peroxidase conjugated secondary antibody, and detection by a colorimetric reagent.

[3] = tested on: transketolase (TKK); test: Transketolase activity in PANC-1 lysates (NADH oxidation); assay type: cell-based; details: 5.5 mM fructose, 72 h
Experimental: FIG. 34 depicts quantitation of transketolase activity in pancreatic cancer PANC-1 cells following incubation in 2 mM glucose, 5.5 mM glucose, and 5.5 mM fructose for 24 h, 48 h, and 72 h respectively, in accordance with an embodiment of the present invention.
The inventors believe that fructose-treatment of pancreatic cancer cells led to an increase in TKK-driven nucleic acid synthesis, and thus fructose-treatment would result in an increase in either PANC-1 TKK expression and/or activity in comparison to equivalent glucose concentrations. Western blot analysis on protein lysates derived from fructose-, and glucose-treated PANC-1 cells were performed (5.5 mM fructose, and glucose for 24, and 48 h as per previous protocol) using a specific TKK antibody, and compared TKK expression in the fructose-, and glucose-treated PANC-1 cells. As depicted in FIG. 33, TKK expression at 24 h, and 48 h in protein lysates derived from 5.5 mM glucose-treated PANC-1 cells was increased in comparison to expression in 2 mM glucose-treated cells. […] After gentle mixing the absorbance of the mixture was measured at 10 min intervals for 2 h at 340 nm. Transketolase activity was then derived from the difference in absorbance at 10, and 80 minutes, and expressed as nmol/min/million cells. […] Pancreatic cancer proliferation rates were then measured using the MTS assay (FIG. 35).

[4] = tested on: normal pancreas tissue; test: Substrate oxidation with 13C tracers in primary culture of normal pancreas; assay type: cell-based, human; details: 5.5 mM, 72 h
Experimental: FIG. 31 depicts substrate oxidation in accordance with an embodiment of the present invention. Substrate oxidation in a primary culture of a normal pancreas (left), and a pancreatic cancer (right) following incubation in 2 mM, or 5 mM glucose, or 5 mM fructose for 72 h.
In separate studies, the inventors treated primary cultures of 4 pancreatic adenocarcinomas, and 3 normal pancreas tissues with the [1,2-^13C2]D-glucose-, or -fructose-tracers as before for 72 h, and carried out metabolic studies.

## O=C(CO)[C@@H](O)[C@H](O)[C@H](O)CO [fructose]
[1]
  proliferative rates (BRDU-uptake): higher proliferative rates
[2]
  increase in AP-1 activation compared to 2 mM glucose: 2.1 fold
[3]
  TKK activity in comparison to 5.5 mM glucose-treated cells: 1.7 fold higher
[4]
  substrate oxidation to CO2: effectively oxidizes

— US8241607B2, “Use of fructose-based compounds for the diagnosis of cancer” (priority 2005, dated 2012)
